According to US9693556B2, “Herbicidal pyridazinone derivatives” (SYNGENTA LIMITED, priority 2011, dated 2017):

Experiments:
Format in all cases: in vivo
[1] = tested on: Echinochloa crus-galli (ECHCG); experiment: Pre-emergence herbicidal glasshouse test on Echinochloa crus-galli; details: pre-emergence, 1000 g/h, evaluated after 13 days
Summary of the method: (§1)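 Application rate 1000 g/h, formulated in acetone/water (50:50) with 0.5% Tween 20 and sprayed onto pots sown 1 day (pre-emergence) or 8 days (post-emergence) earlier. Evaluation at 13 days rated damage from 1 (0-19%) to 5 (80-100%).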

Solanum nigrum (SOLNI) [2] = experiment: Post-emergence herbicidal glasshouse test on Solanum nigrum; details: post-emergence, 1000 g/h, evaluated after 13 days
Summary of the method: as §1

[3] = tested on: Alopecurus myosuroides (ALOMY); experiment: Pre-emergence herbicidal glasshouse test on Alopecurus myosuroides; details: pre-emergence, 1000 g/h, evaluated after 13 days
Summary of the method: as §1

[4] = tested on: Amaranthus retoflexus (AMARE); experiment: Post-emergence herbicidal glasshouse test on Amaranthus retoflexus; details: post-emergence, 1000 g/h, evaluated after 13 days
Summary of the method: as §1

[5] = tested on: Amaranthus retoflexus (AMARE); experiment: Pre-emergence herbicidal glasshouse test on Amaranthus retoflexus; details: pre-emergence, 1000 g/h, evaluated after 13 days
Summary of the method: as §1

[6] = tested on: Echinochloa crus-galli (ECHCG); experiment: Post-emergence herbicidal glasshouse test on Echinochloa crus-galli; details: post-emergence, 1000 g/h, evaluated after 13 days
Summary of the method: as §1

[7] = tested on: Ipomoea hederacea (IPOHE); experiment: Pre-emergence herbicidal glasshouse test on Ipomoea hederacea; details: pre-emergence, 1000 g/h, evaluated after 13 days
Summary of the method: as §1

[8] = tested on: Alopecurus myosuroides (ALOMY); experiment: Post-emergence herbicidal glasshouse test on Alopecurus myosuroides; details: post-emergence, 1000 g/h, evaluated after 13 days
Summary of the method: as §1

Solanum nigrum (SOLNI) [9] = experiment: Pre-emergence herbicidal glasshouse test on Solanum nigrum; details: pre-emergence, 1000 g/h, evaluated after 13 days
Summary of the method: as §1

Setaria faberi (SETFA) [10] = experiment: Pre-emergence herbicidal glasshouse test on Setaria faberi; details: pre-emergence, 1000 g/h, evaluated after 13 days
Summary of the method: as §1

Setaria faberi (SETFA) [11] = experiment: Post-emergence herbicidal glasshouse test on Setaria faberi; details: post-emergence, 1000 g/h, evaluated after 13 days
Summary of the method: as §1

[12] = tested on: Ipomoea hederacea (IPOHE); experiment: Post-emergence herbicidal glasshouse test on Ipomoea hederacea; details: post-emergence, 1000 g/h, evaluated after 13 days
Summary of the method: as §1

Row | Compound | PRE Application ECHCG herbicidal damage (five point scale) [1] | POST Application SOLNI herbicidal damage (five point scale) (Solanum nigrum (SOLNI) [2]) | PRE Application ALOMY herbicidal damage (five point scale) [3] | POST Application AMARE herbicidal damage (five point scale) [4] | PRE Application AMARE herbicidal damage (five point scale) [5] | POST Application ECHCG herbicidal damage (five point scale) [6] | PRE Application IPOHE herbicidal damage (five point scale) [7] | POST Application ALOMY herbicidal damage (five point scale) [8] | PRE Application SOLNI herbicidal damage (five point scale) (Solanum nigrum (SOLNI) [9]) | PRE Application SETFA herbicidal damage (five point scale) (Setaria faberi (SETFA) [10]) | POST Application SETFA herbicidal damage (five point scale) (Setaria faberi (SETFA) [11]) | POST Application IPOHE herbicidal damage (five point scale) [12] | other results
1 | Cc1nc(C(F)(F)F)ccc1-c1cnn(C)c(=O)c1O [Compound 1.067] | 5 (5=80-100% damage) | 5 (5=80-100% damage) | 1 (1=0-19% damage) | 5 (5=80-100% damage) | 4 (4=60-79% damage) | 5 (5=80-100% damage) | 2 (2=20-39% damage) | 2 (2=20-39% damage) | 3 (3=40-59% damage) | 1 (1=0-19% damage) | 4 (4=60-79% damage) | 5 (5=80-100% damage) | 
2 | Cn1ncc(-c2ccc(C(F)(F)F)nc2S(=O)(=O)N2CCOCC2)c(O)c1=O [Compound 4.016] | 5 (5=80-100% damage) | 5 (5=80-100% damage) | 5 (5=80-100% damage) | 5 (5=80-100% damage) | 5 (5=80-100% damage) | 5 (5=80-100% damage) | 5 (5=80-100% damage) | 5 (5=80-100% damage) | 5 (5=80-100% damage) | 5 (5=80-100% damage) | 5 (5=80-100% damage) | 5 (5=80-100% damage) | 
3 | Cn1ncc(-n2ccc(C(F)(F)F)c(-c3cccc(OC(F)(F)F)c3)c2=O)c(O)c1=O [Compound 7.005] | 5 (5=80-100% damage) | 5 (5=80-100% damage) | 4 (4=60-79% damage) | 5 (5=80-100% damage) | 5 (5=80-100% damage) | 5 (5=80-100% damage) | 1 (1=0-19% damage) | 4 (4=60-79% damage) | 5 (5=80-100% damage) | 4 (4=60-79% damage) | 4 (4=60-79% damage) | 4 (4=60-79% damage) | 
4 | Cc1ccc2cc(-c3cnn(C)c(=O)c3O)c(C(F)(F)F)nc2n1 [Compound 1.154] |  |  |  |  |  |  |  |  |  |  |  |  | herbicidal damage, PRE Application ECHCG ([1]; five point scale): 5 (5=80-100% damage); herbicidal damage, POST Application SOLNI (Solanum nigrum (SOLNI) [2]; five point scale): 5 (5=80-100% damage); herbicidal damage, PRE Application ALOMY ([3]; five point scale): 2 (2=20-39% damage); herbicidal damage, POST Application AMARE ([4]; five point scale): 5 (5=80-100% damage); herbicidal damage, PRE Application AMARE ([5]; five point scale): 5 (5=80-100% damage); herbicidal damage, POST Application ECHCG ([6]; five point scale): 5 (5=80-100% damage); herbicidal damage, PRE Application IPOHE ([7]; five point scale): 5 (5=80-100% damage); herbicidal damage, POST Application ALOMY ([8]; five point scale): 4 (4=60-79% damage); herbicidal damage, PRE Application SOLNI (Solanum nigrum (SOLNI) [9]; five point scale): 2 (2=20-39% damage); herbicidal damage, PRE Application SETFA (Setaria faberi (SETFA) [10]; five point scale): 2 (2=20-39% damage); herbicidal damage, POST Application SETFA (Setaria faberi (SETFA) [11]; five point scale): 5 (5=80-100% damage); herbicidal damage, POST Application IPOHE ([12]; five point scale): 5 (5=80-100% damage)
5 | Cc1cccc(-c2c(C(F)(F)F)ccn(-c3cnn(C)c(=O)c3O)c2=O)c1 [Compound 1.038, 4-hydroxy-2-methyl-5-[3-(m-tolyl)-2-oxo-4-(trifluoromethyl)-1-pyridyl]pyridazin-3-one] | 5 (5=80-100% damage) | 5 (5=80-100% damage) | 3 (3=40-59% damage) | 5 (5=80-100% damage) | 5 (5=80-100% damage) | 4 (4=60-79% damage) | 1 (1=0-19% damage) | 4 (4=60-79% damage) | 5 (5=80-100% damage) | 3 (3=40-59% damage) | 5 (5=80-100% damage) | 4 (4=60-79% damage) | 
6 | CC(C)n1ncc(-c2ccc(S(C)(=O)=O)c(C3=NOCC3)c2Cl)c(O)c1=O [Compound 1.014] | 5 (5=80-100% damage) | 5 (5=80-100% damage) | 5 (5=80-100% damage) | 5 (5=80-100% damage) | 5 (5=80-100% damage) | 5 (5=80-100% damage) | 2 (2=20-39% damage) | 5 (5=80-100% damage) | 5 (5=80-100% damage) | 5 (5=80-100% damage) | 5 (5=80-100% damage) | 5 (5=80-100% damage) | 
7 | CC(C)OCc1ccc(-c2cnn(C)c(=O)c2O)c(S(C)(=O)=O)c1 [Compound 2.043] | 5 (5=80-100% damage) | 5 (5=80-100% damage) | 3 (3=40-59% damage) | 5 (5=80-100% damage) | 5 (5=80-100% damage) | 5 (5=80-100% damage) | 2 (2=20-39% damage) | 3 (3=40-59% damage) | 5 (5=80-100% damage) | 1 (1=0-19% damage) | 4 (4=60-79% damage) | 5 (5=80-100% damage) | 
8 | Cc1ccc(-c2cnn(C)c(=O)c2O)c(Cl)c1 [Compound 1.098] | 1 (1=0-19% damage) | 3 (3=40-59% damage) | 1 (1=0-19% damage) | 2 (2=20-39% damage) | 1 (1=0-19% damage) | 1 (1=0-19% damage) | 1 (1=0-19% damage) | 1 (1=0-19% damage) | 1 (1=0-19% damage) | 1 (1=0-19% damage) | 1 (1=0-19% damage) | 2 (2=20-39% damage) | 
